Legend:
ICAM-1 [1] = experiment: Inhibition of LPS-induced ICAM-1 expression in mouse liver; type: in vivo, C57Bl/10 mice; conditions: 10 mg/kg i.v. twice, 24 h and 2 h before LPS; liver RNA 4 h after LPS
ICAM-1 [2] = experiment: ICAM-1 expression in bEnd.3 cells (flow cytometry of cell-surface protein, Northern blot of mRNA); type: cell-based, mouse; conditions: cell culture, without any cationic lipid adjuvant
Source text: Cholesterol-oligonucleotide assays for ICAM-1 are done in the bEnd.3 cell line, a brain endothelioma using Opti-MEM, trypsin-EDTA and DMEM with high glucose (all from Gibco-BRL, Grand Island, N.Y.), Dulbecco's PBS (Irvine Scientific, Irvine, Calif.), sterile, 12 well tissue culture plates and Facsflow solution (from Becton Dickinson, Mansfield, Mass.), ultrapure formaldehyde (Polysciences, Warrington, Pa.), recombinant human TNF-α (R&D Systems, Minneapolis, Minn., mouse interferon-γ (Genzyme, Cambridge, Mass.), and Fraction V, BSA (Sigma, St. Louis, Mo.). The mouse ICAM-1-PE, VCAM-1-FITC, hamster IgG-FITC and rat IgG2α-PE antibodies were purchased from Pharmingen (San Diego, Calif.). Zeta-Probe nylon blotting membrane was purchased from Bio-Rad (Richmond, Calif.). QuickHyb solution was purchased from Stratagene (La Jolla, Calif.). A cDNA labeling kit, Prime-a-Gene, was purchased from ProMega (Madison, Wis.). NAP-5 columns were purchased from Pharmacia (Uppsala, Sweden). […]
After oligonucleotide treatment, cells are detached from the plates with a short treatment of trypsin-EDTA (1-2 min.). […] Cells are analyzed on a Becton Dickinson FACScan. Results are expressed as percentage of control expression, which is calculated as follows: [((CAM expression for oligonucleotide-treated cytokine induced cells)−(basal CAM expression))/((cytokine-induced CAM expression)−(basal CAM expression))]×100. […]

VCAM-1 = VCAM-1 expression in cell culture (target specificity control); type: cell-based, mouse; conditions: isotype protein VCAM-1
Source text: Cholesterol-oligonucleotide assays for ICAM-1 are done in the bEnd.3 cell line, a brain endothelioma using Opti-MEM, trypsin-EDTA and DMEM with high glucose (all from Gibco-BRL, Grand Island, N.Y.), Dulbecco's PBS (Irvine Scientific, Irvine, Calif.), sterile, 12 well tissue culture plates and Facsflow solution (from Becton Dickinson, Mansfield, Mass.), ultrapure formaldehyde (Polysciences, Warrington, Pa.), recombinant human TNF-α (R&D Systems, Minneapolis, Minn., mouse interferon-γ (Genzyme, Cambridge, Mass.), and Fraction V, BSA (Sigma, St. Louis, Mo.). The mouse ICAM-1-PE, VCAM-1-FITC, hamster IgG-FITC and rat IgG2α-PE antibodies were purchased from Pharmingen (San Diego, Calif.). Zeta-Probe nylon blotting membrane was purchased from Bio-Rad (Richmond, Calif.). QuickHyb solution was purchased from Stratagene (La Jolla, Calif.). A cDNA labeling kit, Prime-a-Gene, was purchased from ProMega (Madison, Wis.). NAP-5 columns were purchased from Pharmacia (Uppsala, Sweden). Cells are grown to approximately 75% confluency in 12 well plates with DMEM containing 4.5 g/L glucose and 10% FBS. […] Cells are analyzed on a Becton Dickinson FACScan. Results are expressed as percentage of control expression, which is calculated as follows: [((CAM expression for oligonucleotide-treated cytokine induced cells)−(basal CAM expression))/((cytokine-induced CAM expression)−(basal CAM expression))]×100. […]

[3] = mouse, in vivo
Procedure: The effect of cholesterol conjugation on the pharmacokinetic properties of the oligonucleotide is determined in mice using ^3H radiolabeled Oligonucleotide VI.

Oligomer VI: TGC* ATC CCC CAG GCC ACC AT (P = S), C* = cholesterol carbamate nucleoside Compound 9; cholesterol conjugate of ISIS 3082
reduction of ICAM expression in liver (ICAM-1 [1]): 40-50%
effect on ICAM-1 expression (ICAM-1 [2]): inhibits ICAM-1 in a dose dependent manner
inhibition of VCAM-1 expression (VCAM-1): neither molecule show significant inhibition
amount of oligonucleotide in kidney, skeletal muscle and skin [3]: reduced in kidney, skeletal muscle and skin
amount of oligonucleotide in liver [3]: more oligonucleotide is found in the liver
retention in plasma [3]: retained in the plasma for longer periods of time than is ISIS-3082
